Legend:
HS19.10 = conditions: 2.0 mM L-glutamate, 250 μM PLP, 50 mM HEPES/K+, pH 8.0, 25 °C; DHAP varied
[1] = test system: N[C@@H](COP(=O)(O)O)C(=O)O; assay: purified protein; conditions: 100 mM HEPES/K+, pH 8.0, 25 °C, 250 μM PLP

Molecule | Km (HS19.10) | kcat [1]
O=C(CO)COP(=O)(O)O [DHAP] | 41 ± 2 µM | –
Cj1436 (Campylobacter jejuni subsp. jejuni NCTC 11168 = ATCC 700819) | – | 0.21 ± 0.02 s⁻¹

— publication PMC8524856 (Biochemistry, 2021)
